Test results published in patent US20250228835A1, “PYRIDINYLOXYPYRIDINES AND RELATED COMPOUNDS AND THEIR USE IN TREATING MEDICAL CONDITIONS” (Rectify Pharmaceuticals, Inc., priority 2024, published 2025).

Molecular target: T1, ABCD2 WT (Homo sapiens, UniProt Q9UBJ2)
T1 construct: expressed in transfected cells
T1 sequence (Q9UBJ2 1-740): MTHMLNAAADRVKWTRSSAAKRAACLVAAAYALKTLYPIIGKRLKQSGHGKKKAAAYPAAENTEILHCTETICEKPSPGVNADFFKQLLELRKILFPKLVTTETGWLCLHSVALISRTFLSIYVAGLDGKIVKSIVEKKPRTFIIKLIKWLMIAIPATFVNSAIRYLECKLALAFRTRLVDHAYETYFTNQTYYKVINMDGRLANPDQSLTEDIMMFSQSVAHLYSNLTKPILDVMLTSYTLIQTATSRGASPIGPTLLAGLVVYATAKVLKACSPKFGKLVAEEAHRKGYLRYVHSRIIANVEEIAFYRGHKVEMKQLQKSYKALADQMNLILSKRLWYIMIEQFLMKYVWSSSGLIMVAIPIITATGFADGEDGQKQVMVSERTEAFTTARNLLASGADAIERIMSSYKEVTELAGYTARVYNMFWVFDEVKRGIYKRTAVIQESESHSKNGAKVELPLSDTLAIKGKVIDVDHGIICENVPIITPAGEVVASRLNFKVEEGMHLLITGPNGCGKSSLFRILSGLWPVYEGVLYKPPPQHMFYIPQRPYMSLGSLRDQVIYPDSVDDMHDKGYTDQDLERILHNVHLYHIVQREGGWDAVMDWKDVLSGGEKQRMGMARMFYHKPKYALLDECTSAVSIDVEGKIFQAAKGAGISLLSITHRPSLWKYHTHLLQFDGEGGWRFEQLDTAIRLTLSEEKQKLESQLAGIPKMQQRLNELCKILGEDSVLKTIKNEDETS
Assay: D2 correction dose-response assay: ABCD2 WT HiBit protein expression
Type: cell-based
Conditions: HEK-293/ABCD2 WT cells, 24 hours treatment, HiBit luminescence; class combines EC50 and Mean MaxAct (fold); read-out: ABCD2 WT EC50, Emax
Summary of the method: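 HEK-293 cells stably expressing HiBit-tagged human ABCD2 WT were treated with 11 doses (3-fold dilutions, top final 30 μM, 0.3% DMSO) for 24 h at 37 °C. Expression was measured by HiBit lytic luminescence after 1 h at 25 °C, giving EC50 and Emax.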

| EC50 | Structure (SMILES) |
| --- | --- |
| > 25000 nM | Cc1cc(C)c(Oc2nc(-c3cncc(C(C)(C)O)c3)ccc2NS(C)(=O)=O)c(C)n1 [Compound I-220] |
| > 25000 nM | Cc1cc(C)c(Oc2nc(-c3cncc(C#N)c3)ccc2N2CCCS2(=O)=O)c(C)n1 [Compound I-221] |
| < 1000 nM | COc1cc(C)c(Oc2nc(-c3cncc(C#N)c3)ccc2NS(C)(=O)=O)c(C)n1 [Compound I-222] |
| < 1000 nM | Cc1nc(C)c(C(F)(F)F)cc1Oc1nc(-c2cncc(C#N)c2)ccc1NS(C)(=O)=O [Compound I-225] |
| < 1000 nM | Cc1cc(Oc2nc(-c3cncc(C#N)c3)ccc2NS(C)(=O)=O)c(C)nc1C [Compound I-226] |
| 1000 to 10000 nM | Cc1cc(C)c(Oc2nc(-c3cncc(CO)c3)ccc2NS(C)(=O)=O)c(C)n1 [Compound I-227] |
| 1000 to 10000 nM | Cc1cc(C)c(Oc2nc(-c3cncc(C#N)c3)ccc2NS(=O)(=O)C2COC2)c(C)n1 [Compound I-228] |
| 1000 to 10000 nM | Cc1nc(C)c(C2CC2)cc1Oc1nc(-c2cncc(C#N)c2)ccc1NS(C)(=O)=O [Compound I-229] |
| < 1000 nM | Cc1cc(C(F)F)nc(C)c1Oc1nc(-c2cncc(C#N)c2)ccc1NS(C)(=O)=O [Compound I-230] |
| < 1000 nM | COCc1cncc(-c2ccc(NS(C)(=O)=O)c(Oc3c(C)cc(C)nc3C)n2)c1 [Compound I-231] |
| < 1000 nM | Cc1cc(C)c(Oc2nc(-c3cncc(C4CC4)c3)ccc2NS(C)(=O)=O)c(C)n1 [Compound I-232] |
| < 1000 nM | Cc1nc(C)c(Oc2nc(-c3cncc(C#N)c3)ccc2NS(C)(=O)=O)c(C)n1 [Compound I-234] |
| < 1000 nM | Cc1cc(C2CC2)nc(C)c1Oc1nc(-c2cncc(C#N)c2)ccc1NS(=O)(=O)C1COC1 [Compound I-235] |
| < 1000 nM | Cc1cc(C2CC2)nc(C)c1Oc1nc(-c2cncc(Cl)c2)ccc1NS(=O)(=O)C1COC1 [Compound I-236] |
| < 1000 nM | Cc1cc(C)c(Oc2nc(-c3cncc(Cl)c3)ccc2NS(=O)(=O)C2COC2)c(C)n1 [Compound I-237] |
